From PMC5078010 (Oncotarget, 2016)
Entries after “also recorded” stand apart in the source; their conditions may differ. FAM = carboxyfluorescein

What was measured:
HDM2 M62A = conditions: M62A mutation; earlier selection of Nutlin-resistant HDM2; cited from earlier work
[1] = system: wild-type HDM2 (full-length) / p53 in p53/MDM2-null DKO cells; experiment: p53 reporter assay in DKO cells, WT HDM2; type: cell-based, mouse; conditions: for p53 activity: percentage of p53-alone, ~ 6% without inhibitor
Procedure: (§1) Mouse embryonic fibroblast p53/Mdm2 double-knockout (DKO) cells (a kind gift from Guillermina Lozano) were maintained in Dulbecco's modified Eagle's medium (DMEM) with 10% (v/v) foetal calf serum (FCS) and 1% (v/v) penicillin/streptomycin. The cells were seeded at 1.0 × 10^5 cells/well in 6-well plates, 24 hours prior to transfection. Cells were co-transfected with parental or individual PM2-resistant HDM2 plasmid, p53-pcDNA plasmid, LacZ reporter plasmid and luciferase transfection efficiency plasmid using TurboFect transfection reagent (Thermo Scientific) according to the manufacturer's instructions. […] In all cases, the total amount of plasmid DNA transfected per well was equilibrated by addition of the parental vector pcDNA3.1a (+).
(§2) DKO cells were harvested 24hours post transfection and β-galactosidase activities were assessed using the Dual-light System (Applied Biosystems) according to the manufacturer's protocol. β-galactosidase activity was normalized with luciferase activity for each sample. To check for expression levels of relevant proteins via western blot, 5 μg of the cell lysates were probed for p53 with horseradish peroxidase conjugated DO1 antibody, for HDM2 and actin with anti-HA antibody and AC15 antibody respectively followed by rabbit anti-mouse.

HDM2 L82P = conditions: at the cost of reduced p53 binding; cited from earlier work
Excerpt: The crystal structure of the stapled peptide M06 bound to HDM2-M62A was recently described. […] The side chains of L34 and Y60 pack against numerous hydrophobic residues contributing to the p53-binding hydrophobic cleft (Figure 8). Mutations to less bulky residues (P and C respectively) likely result in altered struc ...

[2] = system: HDM2-C8 (full-length) / p53 in p53/MDM2-null DKO cells; experiment: p53 reporter assay in DKO cells, HDM2-C8; type: cell-based, mouse
Procedure: as §1, §2

[3] = system: HDM2 Y60C (full length) / p53 in p53/MDM2-null DKO cells; experiment: p53 reporter assay in DKO cells, Y60C; type: cell-based, mouse; conditions: knockdown of p53 activity decreased ~7 fold vs WT
Procedure: as §1, §2

[4] = system: xenograft tumours in mice; p53; parameters: method as in PMID 25145672, PMID 26070072; conditions: cited from earlier work
[5] = system: HDM2 F55L (full length) / p53 in p53/MDM2-null DKO cells; experiment: p53 reporter assay in DKO cells, F55L; type: cell-based, mouse; conditions: knockdown reduced ~[…] vs WT
Procedure: as §1, §2

[6] = system: HDM2 variant C8 (residues 1-125) / p53; experiment: In vitro pull-down, selectant C8; type: binding, human; conditions: PM2 10 μM; HDM2 residues 1-125
Procedure: (§3) Protein G beads were incubated with anti-HA (1μg per 10μL beads) for 1 hour in PBST-3%BSA and subsequently washed thrice in PBST-0.1%BSA. IVT-expressed protein was incubated with the beads on a rotator for 30 mins. […] IVT-containing secondary protein was added to the mixture and incubation allowed for 1 hour. Beads were finally washed thrice in PBST-0.1%BSA and thrice with PBS, and bound proteins eluted by resuspension in 20μL SDS-PAGE loading buffer and incubation at 95 °C for 5 minutes. Where required, blank IVT extract (no template DNA added) was used as control. The eluates were subjected to electrophoresis, transferred to nitrocellulose membranes and probed for p53 with DO1-HRP or for HDM2 with anti-HA antibody followed by rabbit anti-mouse (Dakocytomation). Image acquisition was carried out using either film or digitally (Odyssey FC, Li-Cor).

[7] = system: HDM2 variant C12 (residues 1-125) / p53; experiment: In vitro pull-down, selectant C12; type: binding, human; conditions: PM2 10 μM; HDM2 residues 1-125
Procedure: as §3

HDM2 Y48C (1-125) / p53 = experiment: In vitro pull-down, Y48C; type: binding, human; conditions: HDM2 (1-125) Y48C
Procedure: as §3

[8] = system: C8-derived point mutants in full-length HDM2 / p53; experiment: In vitro pull-down, full-length point mutants; type: binding, human; conditions: PM2 10 μM; full-length HDM2, mutations displaying the PM2-resistant phenotype
Procedure: as §3

[9] = system: HDM2 Y60C (residues 1-125) / p53; experiment: In vitro pull-down, Y60C; parameters: species or system human; conditions: PM2 10 μM; N-terminal point mutant Y60C; reduced p53 binding
Procedure: as §3

[10] = system: WT and indicated C8-derived HDM2 (1-125) point mutants / p53; experiment: In vitro pull-down, Fig. S1A; type: binding, human
Procedure: as §3

[11] = system: HDM2 C77R (residues 1-125) / p53; experiment: In vitro pull-down, C77R; type: binding, human; conditions: N-terminal point mutant C77R
Procedure: as §3

[12] = system: HDM2 V108A (N-terminal domain) / p53; experiment: In vitro pull-down, V108A; type: binding, human; conditions: N-terminal point mutant V108A
Procedure: as §3

[13] = system: WT and indicated C11/C12-derived HDM2 (1-125) mutants / p53; experiment: In vitro pull-down, Fig. S1B; type: binding, human
Procedure: as §3

[14] = system: HDM2-F55L (residues 7-134, RFP fusion) / p53 (residues 1-81, GFP fusion) in F2H-BHK cells; experiment: Fluorescent two-hybrid (F2H) co-localization assay; type: cell-based; conditions: PM2 0-50 μM, 6-8 hours, serum-free DMEM, 37°C; n=2
[15] = system: HDM2 L34P (full length) / p53 in p53/MDM2-null DKO cells; experiment: p53 reporter assay in DKO cells, L34P; type: cell-based, mouse; conditions: knockdown of p53 activity decreased ~7 fold vs WT
Procedure: Mouse embryonic fibroblast p53/Mdm2 double-knockout (DKO) cells (a kind gift from Guillermina Lozano) [58] were maintained in Dulbecco's modified Eagle's medium (DMEM) with 10% (v/v) foetal calf serum (FCS) and 1% (v/v) penicillin/streptomycin. The cells were seeded at 1.0 × 10^5 cells/well in 6-well plates, 24 hours prior to transfection. […] In all cases, the total amount of plasmid DNA transfected per well was equilibrated by addition of the parental vector pcDNA3.1a (+).

[16] = system: HDM2 L34P (residues 1-125) / p53; experiment: In vitro pull-down, L34P; parameters: species or system human; conditions: PM2 10 μM; N-terminal point mutant L34P; reduced p53 binding
Procedure: as §3

[17] = system: HDM2-C8 (residues 1-125), M62A reverted / p53; experiment: In vitro pull-down, C8 with M62A reverted; type: binding, human
Procedure: as §3

HDM2 K36E (1-125) / p53 = experiment: In vitro pull-down, K36E; type: binding, human; conditions: HDM2 (1-125) K36E
Procedure: as §3

[18] = system: HDM2 Y67H (N-terminal domain) / p53; experiment: In vitro pull-down, Y67H; type: binding, human; conditions: N-terminal point mutant Y67H
Procedure: as §3

[19] = system: HDM2 variant C11 (residues 1-125) / p53; experiment: In vitro pull-down, selectant C11; type: binding, human; conditions: PM2 10 μM; HDM2 residues 1-125
Procedure: as §3

[20] = system: WT and indicated HDM2 (1-125) single and double point mutants / p53; experiment: In vitro pull-down, Fig. S3; type: binding, human
Procedure: as §3

[21] = system: HDM2 P89S (full length) / p53 in p53/MDM2-null DKO cells; experiment: p53 reporter assay in DKO cells, P89S; type: cell-based, mouse; conditions: PM2
Procedure: as §1, §2

HDM2 F55A (1-125) / p53 = experiment: In vitro pull-down, F55A; type: binding, human; conditions: HDM2 (1-125) F55A
Procedure: as §3

[22] = system: HDM2 I99V (residues 1-125) / p53; experiment: In vitro pull-down, I99V; parameters: species or system human; conditions: PM2 10 μM; N-terminal point mutant I99V; p53 binding retained
Procedure: as §3

[23] = system: HDM2 P89S (residues 1-125) / p53; experiment: In vitro pull-down, P89S; parameters: species or system human; conditions: PM2 10 μM; N-terminal point mutant P89S; p53 binding retained
Procedure: as §3

[24] = system: HDM2 F55L (residues 1-125) / p53; experiment: In vitro pull-down, F55L; parameters: species or system human; conditions: PM2 10 μM; N-terminal point mutant F55L; p53 binding retained
Procedure: as §3

[25] = system: HDM2 I99V (full length) / p53 in p53/MDM2-null DKO cells; experiment: p53 reporter assay in DKO cells, I99V; type: cell-based, mouse; conditions: knockdown reduced ~[…] vs WT
Procedure: as §1, §2

[26] = biological target: T1, HDM2-F55L (amino acids 1-125), recombinant (human, UniProt Q00987 1-125, F55L); experiment: fluorescence polarisation; competitive fluorescence anisotropy, apparent Kd; PM2 or p53 peptide titrated against wild-type HDM2 at 150 nM or HDM2-F55L at 200 nM with 50 nM FAM-12-1 peptide; PBS pH 7.4, 3% DMSO, 0.1% Tween-20; conditions: both partners purified
T1 construct: also called mutant HDM2-F55L; source: E. coli BL21(DE3) pLysS, purified (GSTrap, on-column PreScission cleavage, Resource S cation exchange)
T1 sequence (Q00987 1-125 F55L): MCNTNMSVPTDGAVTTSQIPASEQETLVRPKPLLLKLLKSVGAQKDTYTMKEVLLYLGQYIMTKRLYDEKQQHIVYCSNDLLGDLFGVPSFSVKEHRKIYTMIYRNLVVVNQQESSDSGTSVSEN

[27] = biological target: T2, HDM2 (amino acids 1-125), recombinant (human, UniProt Q00987 1-125); experiment: as above; conditions: both partners purified
T2 construct: also called WT HDM2; source: E. coli BL21(DE3) pLysS, purified (GSTrap, on-column PreScission cleavage, Resource S cation exchange)
T2 sequence (Q00987 1-125): as the sequence (Q00987 1-125 F55L) above, with L55F counted along it

## Nutlin [reference compound]
HDM2 M62A
  effect of M62A on Nutlin binding: shown to abrogate Nutlin binding
[1]; Nutlin 10 μM
  p53 activity: ~ 26%
HDM2 L82P
  resistance of L82P to Nutlin binding: resistant to Nutlin binding at the cost of reduced p53 binding
[2]; Nutlin 10 μM
  effect of Nutlin on C8 function: had little effect in abrogating the function of C8
[3]
  rescue of p53 activity by Nutlin: no rescue observed

## CC(C)(C)C[C@@H]1N[C@@H](C(=O)N[C@H]2CC[C@H](O)CC2)[C@H](c2cccc(Cl)c2F)[C@]12C(=O)Nc1cc(Cl)ccc12 [SAR405838]
[4]
  development of resistance: development of resistance to the Nutlin analogue SAR405838 was associated with a point-mutated p53 that still retained activity

## CC(=O)N[C@H](C(=O)N[C@@H](CO)C(=O)N[C@@H](Cc1ccccc1)C(=O)N[C@]1(C)CCCCCCC=CCCC[C@@](C)(C(N)=O)NC(=O)[C@H](CC(C)C)NC(=O)[C@H](CC(C)C)NC(=O)[C@H](C)NC(=O)[C@H](Cc2c[nH]c3ccccc23)NC(=O)[C@H](Cc2ccc(O)cc2)NC(=O)[C@H](CCC(=O)O)NC1=O)[C@@H](C)O [PM2]
[5]
  magnitude of rescue of p53 activity by PM2: ~ 3.2 fold
[6]
  PM2 resistance (inhibition of p53 pull-down): appeared significantly resistant to PM2, with little or no reduction in their interaction with p53 in the presence of PM2
[7]
  PM2 resistance (inhibition of p53 pull-down): appeared significantly resistant to PM2, with little or no reduction in their interaction with p53 in the presence of PM2
HDM2 Y48C (1-125) / p53
  resistance phenotype (p53 pull-down): Only the L54P mutation showed an exceptionally weak resistance phenotype
[8]
  PM2 resistance (inhibition of p53 pull-down): reduced inhibition by PM2; also recorded: behaved similarly when introduced as point mutants into full-length HDM2
[9]
  PM2 resistance (inhibition of p53 pull-down): clearly resistant to PM2 binding
[10]
  PM2 inhibition of p53 pull-down: no significant reduction in PM2 inhibition
[11]
  PM2 resistance (inhibition of p53 pull-down): showed no PM2-resistance phenotype
[12]
  PM2 resistance (inhibition of p53 pull-down): showed no PM2-resistance phenotype
[13]
  PM2 inhibition of p53 pull-down: no significant reduction in PM2 inhibition
[1]; PM2 20 μM
  p53 activity: ~ 26%
[1]; comparison with F55L and I99V (Figures 6B, 6C)
  magnitude of rescue of p53 activity by PM2: ~ 4 fold
[14]
  inhibition of p53-HDM2 F55L interaction compared to WT: no significant difference compared to WT for inhibition
[15]
  rescue of p53 activity by PM2: no rescue observed
[16]
  PM2 resistance (inhibition of p53 pull-down): clearly resistant to PM2 binding
[17]
  PM2 resistance after reversion of M62A in C8: little impact upon reversion of the M62A mutation to PM2 binding in HDM2-C8; also recorded: reversion of this mutation in the C8 selectant did not alter the phenotype
HDM2 K36E (1-125) / p53
  resistance phenotype (p53 pull-down): Only the L54P mutation showed an exceptionally weak resistance phenotype
[18]
  PM2 resistance (inhibition of p53 pull-down): showed no PM2-resistance phenotype
[19]
  PM2 resistance (inhibition of p53 pull-down): appeared significantly resistant to PM2, with little or no reduction in their interaction with p53 in the presence of PM2
[20]
  PM2 inhibition of p53 pull-down: no significant reduction in PM2 inhibition
[21]
  behaviour in p53 reporter assay: essentially behaved like wild-type HDM2
HDM2 F55A (1-125) / p53
  effect of F55A on interaction with p53 or PM2: make little difference towards interaction with p53 or PM2
[2]; PM2 20 μM
  increase in p53 activity on addition of PM2: did not result in any significant increase in p53 activity
[22]
  PM2 resistance (inhibition of p53 pull-down): showed weak resistance to PM2
[23]
  PM2 resistance (inhibition of p53 pull-down): showed weak resistance to PM2
[24]
  PM2 resistance (inhibition of p53 pull-down): showed weak resistance to PM2
[3]
  rescue of p53 activity by PM2: no rescue observed
[25]
  magnitude of rescue of p53 activity by PM2: ~ 3.2 fold

B1: carboxyfluorescein (FAM) labelled 12-1 peptide (peptide)
peptide: {FAM}-RFMDYWEGL-NH2
notes: tracer peptide of the fluorescence anisotropy assay; also called the labelled peptide
[26]
  binding result: binds
[27]
  binding result: binds
